Measurements from patent publication US20260364184A1, “COMPOUND BASED ON OXOISOINDOLINYL-SUBSTITUTED TETRAHYDROPYRIMIDINE-DIONE AND USE THEREOF” (GLUETACS THERAPEUTICS (SHANGHAI) CO., LTD., priority 2023, published 2026).

What was measured:
Type in all cases: cell-based
[1] = biological target: T1, ALK (Homo sapiens, UniProt Q9UM73); test: Western blot degradation of ALK; details: H2228 Cell; 24 hours
T1 construct: known EML4-ALK variant 3 fusion, ALK kinase part unmutated), Western blot
Procedure: (§1) Conventional Western blot assay was performed to evaluate the effects of the compounds of the present disclosure on the expression of target proteins in cells.
(§2) (1) Cell Seeding and Protein Harvesting: The selected cells were processed according to the cell seeding procedure and protein harvesting procedure in Table II-2.
(§3) (2) To the collected supernatant, 5×SDS sample loading buffer was added, followed by denaturation at 95 °C for 5 minutes. The denatured samples were then separated by SDS-PAGE electrophoresis on a polyacrylamide gel. Proteins were transferred to a nitrocellulose membrane (0.45 μm NC membrane), blocked with blocking buffer at room temperature for 1 hour, and subjected to antibody incubation and development procedures according to the antibody manufacturer's instructions (Cell Signaling Technology).
(§4) Half-Maximal Degradation Concentration value (the drug concentration required for degrading proteins by 50%, abbreviated as DC50) reads method: comparing the grayscale values of Western blot bands from drug-treated samples with those from blank DMSO-treated controls, and identifying the drug concentration range at which the grayscale value is half that of the DMSO-treated control bands.
(§5) DC50 values can be calculated using ImageJ software to measure grayscale values of Western blot bands from drug-treated samples. The concentration-response curve is fitted to estimate the drug concentration corresponding to half the grayscale value.
(§6) Target protein remaining (%) refers to the percentage of target protein remaining in cells after treatment with protein degrader compounds.
(§7) Calculation method for target protein remaining (%): Use ImageJ software to measure grayscale values of Western blot bands from drug (protein degrader)-treated samples. The grayscale value of drug-treated bands is divided by that of internal control protein bands, and the resulting quotient is normalized to obtain the relative percentage of remaining target protein after protein degrader treatment.
(§8) Target protein degradation rate (%)=1−target protein remaining (%).

[2] = biological target: T2, AR (Homo sapiens, UniProt P10275); test: Western blot degradation of AR; details: LnCap Cell; 24 hours
T2 construct: expression of target proteins in cells; endogenous in cells
T2 sequence (P10275 1-920): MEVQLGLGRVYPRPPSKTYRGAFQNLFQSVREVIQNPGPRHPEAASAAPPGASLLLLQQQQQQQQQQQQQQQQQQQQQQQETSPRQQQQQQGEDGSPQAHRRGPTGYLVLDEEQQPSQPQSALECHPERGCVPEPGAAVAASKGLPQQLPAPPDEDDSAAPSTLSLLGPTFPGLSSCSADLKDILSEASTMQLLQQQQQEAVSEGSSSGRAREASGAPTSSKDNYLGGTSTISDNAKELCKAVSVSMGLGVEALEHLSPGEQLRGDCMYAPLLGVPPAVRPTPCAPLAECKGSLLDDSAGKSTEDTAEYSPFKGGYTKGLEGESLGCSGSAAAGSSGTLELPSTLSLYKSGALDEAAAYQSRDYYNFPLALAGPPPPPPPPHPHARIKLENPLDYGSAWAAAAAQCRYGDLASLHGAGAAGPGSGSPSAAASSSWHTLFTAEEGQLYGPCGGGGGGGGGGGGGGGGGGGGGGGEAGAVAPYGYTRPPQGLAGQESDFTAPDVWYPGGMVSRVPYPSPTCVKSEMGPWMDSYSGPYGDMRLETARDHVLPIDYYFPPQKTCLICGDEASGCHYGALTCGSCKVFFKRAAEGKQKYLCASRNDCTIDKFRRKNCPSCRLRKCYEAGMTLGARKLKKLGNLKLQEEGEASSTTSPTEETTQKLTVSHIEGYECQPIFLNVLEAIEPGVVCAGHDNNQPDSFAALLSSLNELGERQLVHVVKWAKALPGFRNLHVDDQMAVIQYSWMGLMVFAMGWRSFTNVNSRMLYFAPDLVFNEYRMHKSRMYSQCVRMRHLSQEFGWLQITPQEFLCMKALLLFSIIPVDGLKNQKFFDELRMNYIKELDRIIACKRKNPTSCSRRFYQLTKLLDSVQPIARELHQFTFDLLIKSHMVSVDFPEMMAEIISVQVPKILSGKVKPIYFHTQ
Procedure: as §1, §2, §3, §4, §5, §6, §7, §8

[3] = system: Human acute lymphocytic leukemia T lymphocytes cell line (CCRF-CEM); test: Inhibition of CCRF-CEM cell proliferation (CellTiter luminescent viability); details: Homo sapiens, 96 h, Table IF2, AR inhibitor-based; for inhibition at 0.01 µM: 10 nM, read-out: Inhibition Rate at 10 nM (%); for inhibition at 0.5 µM: 500 nM, read-out: Inhibition Rate at 500 nM (%)
[4] = system: Human diffuse large B-cell lymphoma cell line (TMD8); test: Inhibition of TMD8 cell proliferation (CellTiter luminescent viability); details: Homo sapiens, TMD8, 96 h, Table IF1, AR inhibitor-based; for inhibition at 0.01 µM: TMD8, 10 nM, read-out: Inhibition Rate at 10 nM (%); for inhibition at 0.5 µM: TMD8, 500 nM, read-out: Inhibition Rate at 500 nM (%)
[5] = system: Human T lymphocytic leukemia cell line (Jurkat); test: Inhibition of Jurkat cell proliferation (CellTiter luminescent viability); details: Homo sapiens, Table IF3, AR inhibitor-based, 96 hours; for inhibition at 0.01 µM: 10 nM, read-out: Inhibition Rate at 10 nM (%); for inhibition at 0.5 µM: 500 nM, read-out: Inhibition Rate at 500 nM (%)
Procedure: (§9) The tumor cells used herein were cultured in a cell culture medium listed in table 3 at 37 °C in an incubator with 5% CO2. Prior to experimentation, all cell lines used were correctly identified by STR profiling, and tested negative for mycoplasma contamination using a mycoplasma detection kit through routine screenings.
(§10) The IC50 values of the compounds of the present disclosure (including the compounds in Table 1, Table 2, and Examples 1-468) were determined using the CellTiter-Meiluncell Luminescent Cell Viability Assay Kit from Dalian Meilun Biotech Co., Ltd. The detailed procedure is as follows: Tumor cells were seeded in 96-well cell culture plates at the densities specified in Table 4. On the following day, the test compounds of the present disclosure were subjected to serial dilution. The dilution can be performed according to one of the following two methods: • (1) The first dilution method: The test compounds of the present disclosure (including the compounds in Table 1, Table 2, and Examples 1-468) were subjected to 5-fold serial dilutions starting from a highest concentration of 2000 μM, resulting in a total of 9 concentrations from high to low (2000, 400, 80, 16, 3.2, 0.64, 0.128, 0.0256, 0.00512 μM). Subsequently, 0.5 μL of the test compound dilution was transferred into the 96-well plate containing the cells, with each well containing 100 μL of cell culture medium. […] Into the 96-well plate, the diluted test compounds and corresponding detection reagents were added, resulting in final test compound concentrations of 500 nM and 10 nM, respectively. The experimental procedure is described below using the diluted 2 μM test compound as an example.
(§11) 0.5 μL of the aforementioned diluted compound of the present disclosure (including the compounds in Table 1, Table 2, and Examples 1-468) was added to the seeded cells in 100 μL of medium, yielding a final test compound concentration of 10 nM. After the cells were treated with the compounds of the present disclosure for a specified period, the cell viability assay reagent was added to the culture medium according to the kit's instructions to determine cell viability. […] All controls were treated using the same procedure as the compounds of the present disclosure. The growth inhibition curves for the compounds of the present disclosure were plotted using Prism GraphPad software, and the IC50 values were calculated therefrom.

[6] = system: Human large cell immunoblastic lymphoma cell line SR; test: Inhibition of SR cell proliferation (CellTiter luminescent viability); details: Table IB1, ALK inhibitor-based, 96 hours, read-out: Inhibitory activity (IC50, nM) on tumor cell proliferation, SR
Procedure: as §9, §10, §11

T1 sequence (Q9UM73 19-1620): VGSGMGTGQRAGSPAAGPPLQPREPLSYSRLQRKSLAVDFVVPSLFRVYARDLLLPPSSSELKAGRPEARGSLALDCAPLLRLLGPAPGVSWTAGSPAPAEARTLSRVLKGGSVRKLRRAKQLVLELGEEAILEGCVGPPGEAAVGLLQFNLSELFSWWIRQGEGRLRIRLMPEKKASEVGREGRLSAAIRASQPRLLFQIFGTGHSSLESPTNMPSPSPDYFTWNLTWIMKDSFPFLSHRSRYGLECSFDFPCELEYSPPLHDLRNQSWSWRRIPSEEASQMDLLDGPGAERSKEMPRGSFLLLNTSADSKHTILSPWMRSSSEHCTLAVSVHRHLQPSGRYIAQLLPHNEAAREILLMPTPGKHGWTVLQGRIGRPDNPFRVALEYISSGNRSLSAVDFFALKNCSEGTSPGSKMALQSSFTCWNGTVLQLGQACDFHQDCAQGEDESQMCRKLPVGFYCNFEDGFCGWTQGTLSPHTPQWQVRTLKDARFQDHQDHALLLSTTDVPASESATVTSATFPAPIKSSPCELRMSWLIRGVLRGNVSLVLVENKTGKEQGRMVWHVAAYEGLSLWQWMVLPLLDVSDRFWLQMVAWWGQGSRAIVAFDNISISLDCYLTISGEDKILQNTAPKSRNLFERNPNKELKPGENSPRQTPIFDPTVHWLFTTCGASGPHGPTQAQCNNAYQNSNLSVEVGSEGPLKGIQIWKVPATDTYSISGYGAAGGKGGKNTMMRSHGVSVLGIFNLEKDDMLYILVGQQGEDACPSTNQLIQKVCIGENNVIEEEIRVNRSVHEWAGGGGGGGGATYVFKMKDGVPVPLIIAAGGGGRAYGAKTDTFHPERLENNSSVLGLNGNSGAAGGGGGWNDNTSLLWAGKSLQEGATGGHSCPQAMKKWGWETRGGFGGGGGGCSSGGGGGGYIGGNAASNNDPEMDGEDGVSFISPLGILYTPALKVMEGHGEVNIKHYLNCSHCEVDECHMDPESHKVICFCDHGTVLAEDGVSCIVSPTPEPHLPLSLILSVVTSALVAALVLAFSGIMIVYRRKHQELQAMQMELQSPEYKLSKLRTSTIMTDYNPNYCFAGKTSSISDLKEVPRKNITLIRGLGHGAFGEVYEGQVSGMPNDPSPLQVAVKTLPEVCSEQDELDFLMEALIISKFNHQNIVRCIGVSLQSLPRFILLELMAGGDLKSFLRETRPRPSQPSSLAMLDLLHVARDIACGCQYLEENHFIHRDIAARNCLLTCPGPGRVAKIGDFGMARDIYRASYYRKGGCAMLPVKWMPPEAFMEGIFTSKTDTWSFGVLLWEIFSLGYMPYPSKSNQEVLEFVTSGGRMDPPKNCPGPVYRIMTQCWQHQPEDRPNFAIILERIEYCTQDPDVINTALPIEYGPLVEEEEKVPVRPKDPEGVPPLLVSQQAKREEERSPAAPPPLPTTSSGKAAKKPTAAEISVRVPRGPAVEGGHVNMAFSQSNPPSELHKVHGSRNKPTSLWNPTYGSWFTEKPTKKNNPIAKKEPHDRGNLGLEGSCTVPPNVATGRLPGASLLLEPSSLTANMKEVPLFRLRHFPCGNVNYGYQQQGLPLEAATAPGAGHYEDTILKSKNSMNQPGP
T1 sequence (Q96SW2 whole entry partner, the tested form may be a part): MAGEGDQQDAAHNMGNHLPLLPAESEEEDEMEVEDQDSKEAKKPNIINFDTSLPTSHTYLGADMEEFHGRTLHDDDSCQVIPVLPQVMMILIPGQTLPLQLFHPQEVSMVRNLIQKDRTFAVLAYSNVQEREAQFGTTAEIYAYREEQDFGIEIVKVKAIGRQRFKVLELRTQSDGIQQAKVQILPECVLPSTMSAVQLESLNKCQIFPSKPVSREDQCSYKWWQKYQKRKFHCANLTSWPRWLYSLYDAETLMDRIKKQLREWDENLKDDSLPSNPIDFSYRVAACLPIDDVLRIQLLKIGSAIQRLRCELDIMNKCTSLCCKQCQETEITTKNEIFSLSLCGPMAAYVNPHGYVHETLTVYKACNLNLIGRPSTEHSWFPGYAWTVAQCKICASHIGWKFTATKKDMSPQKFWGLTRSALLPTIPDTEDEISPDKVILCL

COc1cc(N2CCC(N(C)Cc3ccc4c(c3)C(=O)N(N3CCC(=O)NC3=O)C4=O)CC2)ccc1Nc1ncc(Cl)c(Nc2ccccc2P(C)(C)=O)n1 [GT-04660, 5-(((1-(4-((5-chloro-4-((2-(dimethylphosphoryl)phenyl)amino)pyrimidin-2-yl)amino)-3-methoxyphenyl)piperidin-4-yl)(methyl)amino)methyl)-2-(2,4-dioxotetrahydropyrimidin-1(2H)-yl)isoindoline-1,3-dione]
Degradation of substrate protein ALK (substrate protein remaining %) [1]: A (0%≤substrate protein remaining %≤80%)

CCc1cc2c(cc1N1CCC(N3CCN(Cc4ccc5c(c4)C(=O)N(N4CCC(=O)NC4=O)C5=O)CC3)CC1)C(C)(C)c1[nH]c3cc(C#N)ccc3c1C2=O [GT-04661, 8-(4-(4-((2-(2,4-dioxotetrahydropyrimidin-1(2H)-yl)-1,3-dioxoisoindolin-5-yl)methyl)piperazin-1-yl)piperidin-1-yl)-9-ethyl-6,6-dimethyl-11-oxo-6,11-dihydro-5H-benzo[b]carbazole-3-carbonitrile]
Degradation of substrate protein ALK (substrate protein remaining %) [1]: A (0%≤substrate protein remaining %≤80%)

CC1(C)[C@H](NC(=O)c2ccc(N3CCC(CN4C5CC4CN(c4ccc6c(c4)C(=O)N(N4CCC(=O)NC4=O)C6=O)C5)CC3)nc2)C(C)(C)[C@H]1Oc1ccc(C#N)c(Cl)c1 [GT-05823, N-((1r,3r)-3-(3-chloro-4-cyanophenoxy)-2,2,4,4-tetramethylcyclobutyl)-6-(4-((3-(2-(2,4-dioxotetrahydropyrimidin-1(2H)-yl)-1,3-dioxoisoindolin-5-yl)-3,6-diazabicyclo[3.1.1]heptan-6-yl)methyl)piperidin-1-yl)nicotinamide]
Degradation of substrate protein AR (substrate protein remaining %) [2]: A (0%≤substrate protein remaining %≤80%)
inhibition at 0.01 µM [3]: 5 to 10%
inhibition at 0.5 µM [3]: 20 to 30%
inhibition at 0.01 µM [4]: 10 to 15%
inhibition at 0.5 µM [4]: 35 to 40%
inhibition at 0.01 µM [5]: 5 to 10%
inhibition at 0.5 µM [5]: 20 to 30%

N#Cc1ccc(O[C@H]2CC[C@H](NC(=O)c3ccc(N4CCC(CN5C6CCC5CN(c5ccc7c(c5)C(=O)N(N5CCC(=O)NC5=O)C7=O)C6)CC4)nn3)CC2)cc1Cl [GT-05824, N-((1r,4r)-4-(3-chloro-4-cyanophenoxy)cyclohexyl)-6-(4-((3-(2-(2,4-dioxotetrahydropyrimidin-1(2H)-yl)-1,3-dioxoisoindolin-5-yl)-3,8-diazabicyclo[3.2.1]octan-8-yl)methyl)piperidin-1-yl)pyridazine-3-carboxamide]
Degradation of substrate protein AR (substrate protein remaining %) [2]: A (0%≤substrate protein remaining %≤80%)
inhibition at 0.01 µM [3]: 10 to 15%
inhibition at 0.5 µM [3]: 30 to 40%
inhibition at 0.01 µM [4]: 15 to 20%
inhibition at 0.5 µM [4]: 40 to 60%
inhibition at 0.01 µM [5]: 5 to 10%
inhibition at 0.5 µM [5]: 30 to 40%

CC1(C)[C@H](NC(=O)c2ccc(N3CCC(CN4C5CCC4CN(c4ccc6c(c4)C(=O)N(N4CCC(=O)NC4=O)C6=O)C5)CC3)nc2)C(C)(C)[C@H]1Oc1ccc(C#N)c(Cl)c1 [GT-05826, N-((1r,3r)-3-(3-chloro-4-cyanophenoxy)-2,2,4,4-tetramethylcyclobutyl)-6-(4-((3-(2-(2,4-dioxotetrahydropyrimidin-1(2H)-yl)-1,3-dioxoisoindolin-5-yl)-3,8-diazabicyclo[3.2.1]octan-8-yl)methyl)piperidin-1-yl)nicotinamide]
Degradation of substrate protein AR (substrate protein remaining %) [2]: A (0%≤substrate protein remaining %≤80%)
inhibition at 0.01 µM [3]: 20 to 30%
inhibition at 0.5 µM [3]: 40 to 60%
inhibition at 0.01 µM [4]: 25 to 30%
inhibition at 0.5 µM [4]: 40 to 60%
inhibition at 0.01 µM [5]: 20 to 30%
inhibition at 0.5 µM [5]: 40 to 60%

CCc1cc2c(cc1N1CCC(N3CCN(Cc4ccc5c(c4)CN(N4CCC(=O)NC4=O)C5=O)CC3)CC1)C(C)(C)c1[nH]c3cc(C#N)ccc3c1C2=O [GT-06822, 8-(4-(4-((2-(2,4-dioxotetrahydropyrimidin-1(2H)-yl)-1-oxoisoindolin-5-yl)methyl)piperazin-1-yl)piperidin-1-yl)-9-ethyl-6,6-dimethyl-11-oxo-6,11-dihydro-5H-benzo[b]carbazole-3-carbonitrile]
Degradation of substrate protein ALK (substrate protein remaining %) [1]: A (0%≤substrate protein remaining %≤80%)
IC50 [6]: 10 to 50 nM

COc1cc(N2CCC(CN3CC4CCC(C3)N4c3ccc4c(c3)C(=O)N(N3CCC(=O)NC3=O)C4=O)CC2)ccc1Nc1ncc(Cl)c(Nc2ccccc2P(C)(C)=O)n1 [GT-08530, 5-(3-((1-(4-((5-chloro-4-((2-(dimethylphosphoryl)phenyl)amino)pyrimidin-2-yl)amino)-3-methoxyphenyl)piperidin-4-yl)methyl)-3,8-diazabicyclo[3.2.1]octan-8-yl)-2-(2,4-dioxotetrahydropyrimidin-1(2H)-yl)isoindoline-1,3-dione]
Degradation of substrate protein ALK (substrate protein remaining %) [1]: A (0%≤substrate protein remaining %≤80%)
